Experimental data: patent US20250230193A1, “CYCLIC COMPOUND HAVING SELECTIVE KRAS INHIBITORY EFFECT ON HRAS AND NRAS” (CHUGAI SEIYAKU KABUSHIKI KAISHA, priority 2022, published 2025)

Key:
[1] = biological target: GDP-bound NRAS wild-type protein (Homo sapiens, UniProt P01111); assay: Binding to NRAS by surface plasmon resonance (SPR), Single Cycle Kinetics; conditions: KD ratio NRAS/KRAS, class symbols
[2] = biological target: GDP-bound HRAS wild-type protein (Homo sapiens, UniProt P01112); assay: Binding to HRAS by surface plasmon resonance (SPR), Single Cycle Kinetics; conditions: KD ratio HRAS/KRAS, class symbols
Chain of GDP-bound HRAS wild-type protein (P01112 whole entry): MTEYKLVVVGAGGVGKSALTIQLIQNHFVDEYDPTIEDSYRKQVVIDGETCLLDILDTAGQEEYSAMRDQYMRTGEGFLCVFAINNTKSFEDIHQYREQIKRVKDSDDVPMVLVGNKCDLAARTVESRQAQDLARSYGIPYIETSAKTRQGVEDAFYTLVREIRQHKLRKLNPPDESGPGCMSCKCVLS

Chain of GDP-bound NRAS wild-type protein (P01111 whole entry): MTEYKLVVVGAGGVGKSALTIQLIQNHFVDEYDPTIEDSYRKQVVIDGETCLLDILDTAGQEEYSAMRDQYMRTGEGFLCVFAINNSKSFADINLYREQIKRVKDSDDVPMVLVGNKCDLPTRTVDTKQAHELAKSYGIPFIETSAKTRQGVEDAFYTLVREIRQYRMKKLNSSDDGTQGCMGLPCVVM

SMILES | NRAS/KRAS (ratio of KD value with respect to GDP-bound NRAS wild-type protein to KD value with respect to KRAS) [1] | HRAS/KRAS (ratio of KD value with respect to GDP-bound HRAS wild-type protein to KD value with respect to KRAS) [2]
CCC[C@H]1C(=O)N[C@@H]([C@@H](C)CC)C(=O)N(C2CC2)CC(=O)N(C)[C@H]2C/C=C\CCN(C2=O)[C@@H](Cc2ccc(C(F)(F)F)cc2)C(=O)N(C)CC(=O)N[C@@H](CCc2cc(F)c(C(F)(F)F)c(F)c2)C(=O)N2C[C@H](OCC)C[C@H]2C(=O)NC2(CC(C)(C)C2)C(=O)N(C)[C@@H](CC(C)(C)C)C(=O)N(C)[C@H](C(=O)N(C)C)CC(=O)N1C [PP2742] | AA (a compound having 20 or more is denoted as AA) | A (a compound having 10 or more and less than 20 is denoted as A)
CCO[C@@H]1C[C@H]2C(=O)NC3(CC(C)(C)C3)C(=O)N(C)[C@@H](CC(C)(C)C)C(=O)N(C)[C@H](C(=O)N(C)C)CC(=O)N(C)[C@@H](COC)C(=O)N[C@@H]([C@@H](C)CC)C(=O)N(C3CC3)CC(=O)N(C)[C@H]3C/C=C\CCN(C3=O)[C@@H](Cc3ccc(C(F)(F)F)cc3)C(=O)N(C)CC(=O)N[C@@H](CCc3cc(F)c(C(F)(F)F)c(F)c3)C(=O)N2C1 [PP2744] | A (a compound having 10 or more and less than 20 is denoted as A) | A (a compound having 10 or more and less than 20 is denoted as A)
CCC[C@H]1C(=O)N[C@@H]([C@@H](C)CC)C(=O)N(C2CC2)CC(=O)N(C)[C@H]2C/C=C\CCN(C2=O)[C@@H](Cc2ccc(C(F)(F)F)cc2)C(=O)N(C)CC(=O)N[C@@H](CCc2ccc(C(F)(F)F)c(OC)c2)C(=O)N2C[C@H](OCC)C[C@H]2C(=O)NC2(CC(C)(C)C2)C(=O)N(C)[C@@H](CC(C)(C)C)C(=O)N(C)[C@H](C(=O)N(C)C)CC(=O)N1C [PP2746] | A (a compound having 10 or more and less than 20 is denoted as A) | A (a compound having 10 or more and less than 20 is denoted as A)
CCO[C@@H]1C[C@H]2C(=O)NC3(CC(C)(C)C3)C(=O)N(C)[C@@H](CC(C)(C)C)C(=O)N(C)[C@H](C(=O)N(C)C)CC(=O)N(C)[C@@H](COC)C(=O)N[C@@H]([C@@H](C)CC)C(=O)N(C3CC3)CC(=O)N(C)[C@H]3C/C=C\CCN(C3=O)[C@@H](Cc3ccc(C(F)(F)F)cc3)C(=O)N(C)CC(=O)N[C@@H](CCc3ccc(C(F)(F)F)c(OC)c3)C(=O)N2C1 [PP2748] | A (a compound having 10 or more and less than 20 is denoted as A) | A (a compound having 10 or more and less than 20 is denoted as A)
CCC[C@H]1C(=O)N[C@@H]([C@@H](C)CC)C(=O)N(C2CC2)CC(=O)N(C)[C@H]2C/C=C\CCN(C2=O)[C@@H](Cc2ccc(C(F)(F)F)cc2)C(=O)N(C)CC(=O)N[C@@H](CCc2ccc(Cl)c(Cl)c2)C(=O)N2C[C@H](OCC)C[C@H]2C(=O)NC2(CC(C)(C)C2)C(=O)N(C)[C@@H](CC(C)(C)C)C(=O)N(C)[C@H](C(=O)N(C)C)CC(=O)N1C [PP2749] | AA (a compound having 20 or more is denoted as AA) | A (a compound having 10 or more and less than 20 is denoted as A)
CCO[C@@H]1C[C@H]2C(=O)NC3(CC(C)(C)C3)C(=O)N(C)[C@@H](CC(C)(C)C)C(=O)N(C)[C@H](C(=O)N(C)C)CC(=O)N(C)[C@@H](COC)C(=O)N[C@@H]([C@@H](C)CC)C(=O)N(C3CC3)CC(=O)N(C)[C@H]3C/C=C\CCN(C3=O)[C@@H](Cc3ccc(C(F)(F)F)cc3)C(=O)N(C)CC(=O)N[C@@H](CCc3ccc(Cl)c(Cl)c3)C(=O)N2C1 [PP2750] | AA (a compound having 20 or more is denoted as AA) | A (a compound having 10 or more and less than 20 is denoted as A)
CCC[C@H]1C(=O)N[C@@H]([C@@H](C)CC)C(=O)N(C)CC(=O)N(C)[C@H]2C/C=C\CCN(C2=O)[C@@H](Cc2ccc(C)cc2)C(=O)N(C)CC(=O)N[C@@H](CCc2cc(F)c(C(F)(F)F)c(F)c2)C(=O)N2C[C@H](OCC)C[C@H]2C(=O)NC2(CC(C)(C)C2)C(=O)N(C)[C@@H](CC2CCC2)C(=O)N(C)[C@H](C(=O)N(C)C)CC(=O)N1C [PP2751] | A (a compound having 10 or more and less than 20 is denoted as A) | A (a compound having 10 or more and less than 20 is denoted as A)
CCCOC[C@H]1C(=O)N[C@@H]([C@@H](C)CC)C(=O)N(C)CC(=O)N(C)[C@H]2C/C=C\CCN(C2=O)[C@@H](Cc2ccc(C)cc2)C(=O)N(C)CC(=O)N[C@@H](CCc2cc(F)c(C(F)(F)F)c(F)c2)C(=O)N2C[C@H](OCC)C[C@H]2C(=O)NC2(CC(C)(C)C2)C(=O)N(C)[C@@H](CC2CCC2)C(=O)N(C)[C@H](C(=O)N(C)C)CC(=O)N1C [PP2752] | A (a compound having 10 or more and less than 20 is denoted as A) | A (a compound having 10 or more and less than 20 is denoted as A)
CCC[C@H]1C(=O)N[C@@H]([C@@H](C)CC)C(=O)N(C)CC(=O)N(C)[C@H]2C/C=C\CCN(C2=O)[C@@H](Cc2ccc(C)cc2)C(=O)N(C)CC(=O)N[C@@H](CCc2ccc(C(F)(F)F)c(OC)c2)C(=O)N2C[C@H](OCC)C[C@H]2C(=O)NC2(CC(C)(C)C2)C(=O)N(C)[C@@H](CC2CCC2)C(=O)N(C)[C@H](C(=O)N(C)C)CC(=O)N1C [PP2753] | A (a compound having 10 or more and less than 20 is denoted as A) | B (a compound having 3 or more and less than 10 is denoted as B)
CCC[C@H]1C(=O)N[C@@H]([C@@H](C)CC)C(=O)N(C)CC(=O)N(C)[C@H]2C/C=C\CCN(C2=O)[C@@H](Cc2ccc(C)cc2)C(=O)N(C)CC(=O)N[C@@H](CCc2ccc(Cl)c(Cl)c2)C(=O)N2C[C@H](OCC)C[C@H]2C(=O)NC2(CC(C)(C)C2)C(=O)N(C)[C@@H](CC2CCC2)C(=O)N(C)[C@H](C(=O)N(C)C)CC(=O)N1C [PP2755] | A (a compound having 10 or more and less than 20 is denoted as A) | A (a compound having 10 or more and less than 20 is denoted as A)
CCC[C@H]1C(=O)N[C@@H]([C@@H](C)CC)C(=O)N(C2CC2)CC(=O)N(C)[C@H]2C/C=C\CCN(C2=O)[C@@H](Cc2ccc(C)cc2)C(=O)N(C)CC(=O)N[C@@H](CCc2ccc(Cl)c(Cl)c2)C(=O)N2C[C@H](OCC)C[C@H]2C(=O)NC2(CC(C)(C)C2)C(=O)N(C)[C@@H](CC2CCC2)C(=O)N(C)[C@H](C(=O)N(C)C)CC(=O)N1C [PP2761] | A (a compound having 10 or more and less than 20 is denoted as A) | A (a compound having 10 or more and less than 20 is denoted as A)
CCOC[C@H]1C(=O)N[C@@H]([C@@H](C)CC)C(=O)N(C2CC2)CC(=O)N(C)[C@H]2C/C=C\CCN(C2=O)[C@@H](Cc2ccc(C)cc2)C(=O)N(C)CC(=O)N[C@@H](CCc2ccc(Cl)c(Cl)c2)C(=O)N2C[C@H](OCC)C[C@H]2C(=O)NC2(CC(C)(C)C2)C(=O)N(C)[C@@H](CC2CCC2)C(=O)N(C)[C@H](C(=O)N(C)C)CC(=O)N1C [PP2762] | A (a compound having 10 or more and less than 20 is denoted as A) | A (a compound having 10 or more and less than 20 is denoted as A)
CCOC[C@H]1C(=O)N[C@@H]([C@@H](C)CC)C(=O)N(C)CC(=O)N(C)[C@H]2C/C=C\CCN(C2=O)[C@@H](Cc2ccc(C(F)(F)F)cc2)C(=O)N(C)CC(=O)N[C@@H](CCc2cc(F)c(C(F)(F)F)c(F)c2)C(=O)N2C[C@H](OCC)C[C@H]2C(=O)NC2(CC(C)(C)C2)C(=O)N(C)[C@@H](CC2CCC2)C(=O)N(C)[C@H](C(=O)N(C)C)CC(=O)N1C [PP2763] | A (a compound having 10 or more and less than 20 is denoted as A) | A (a compound having 10 or more and less than 20 is denoted as A)
CCC[C@H]1C(=O)N[C@@H]([C@@H](C)CC)C(=O)N(C)CC(=O)N(C)[C@H]2C/C=C\CCN(C2=O)[C@@H](Cc2ccc(C(F)(F)F)cc2)C(=O)N(C)CC(=O)N[C@@H](CCc2ccc(C(F)(F)F)c(OC)c2)C(=O)N2C[C@H](OCC)C[C@H]2C(=O)NC2(CC(C)(C)C2)C(=O)N(C)[C@@H](CC2CCC2)C(=O)N(C)[C@H](C(=O)N(C)C)CC(=O)N1C [PP2764] | A (a compound having 10 or more and less than 20 is denoted as A) | A (a compound having 10 or more and less than 20 is denoted as A)
CCOC[C@H]1C(=O)N[C@@H]([C@@H](C)CC)C(=O)N(C)CC(=O)N(C)[C@H]2C/C=C\CCN(C2=O)[C@@H](Cc2ccc(C(F)(F)F)cc2)C(=O)N(C)CC(=O)N[C@@H](CCc2ccc(C(F)(F)F)c(OC)c2)C(=O)N2C[C@H](OCC)C[C@H]2C(=O)NC2(CC(C)(C)C2)C(=O)N(C)[C@@H](CC2CCC2)C(=O)N(C)[C@H](C(=O)N(C)C)CC(=O)N1C [PP2765] | A (a compound having 10 or more and less than 20 is denoted as A) | A (a compound having 10 or more and less than 20 is denoted as A)
